According to ChEMBL document CHEMBL1201862, “PubChem BioAssay data set” (2004):
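Tested at 5 concentrations; 48 h exposure; 96-well plates; endpoints linearly interpolated, else capped at highest concentration. GI50: concentration for 50% inhibition of growth.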 Active and inactive are the calls of the source. Rule as the data show it: active = GI50 up to about 1.1 µM and inactive = higher.

How the values were obtained:
Experiment in all cases: inhibition of tumour cell growth, NCI panel, 48 h
A498 = test system: A498
A549 = test system: A549
ACHN = test system: ACHN
CAKI-1 = test system: CAKI-1
DU-145 = test system: DU-145
HCC 2998 = test system: HCC 2998
HCT-15 = test system: HCT-15
HL-60 = test system: HL-60
HOP-62 = test system: HOP-62
HOP-92 = test system: HOP-92
HT-29 = test system: HT-29
K562 = test system: K562
KM12 = test system: KM12
LOX IMVI = test system: LOX IMVI
M14 = test system: M14
MDA-MB-231 = test system: MDA-MB-231
MDA-MB-435 = test system: MDA-MB-435
Malme-3M = test system: Malme-3M
NCI-H226 = test system: NCI-H226
NCI-H23 = test system: NCI-H23
NCI-H460 = test system: NCI-H460
NCI-H522 = test system: NCI-H522
OVCAR-3 = test system: OVCAR-3
OVCAR-4 = test system: OVCAR-4
OVCAR-5 = test system: OVCAR-5
RPMI-8226 = test system: RPMI-8226
SF-268 = test system: SF-268
SF-295 = test system: SF-295
SF-539 = test system: SF-539
SK-MEL-28 = test system: SK-MEL-28
SK-MEL-5 = test system: SK-MEL-5
SN12C = test system: SN12C
SNB-75 = test system: SNB-75
SR = test system: SR
SW-620 = test system: SW-620
TK-10 = test system: TK-10
UACC-257 = test system: UACC-257
UACC-62 = test system: UACC-62
UO-31 = test system: UO-31
CCRF-CEM = test system: CCRF-CEM
EKVX = test system: EKVX
IGROV-1 = test system: IGROV-1
MCF7 = test system: MCF7
MDA-N = test system: MDA-N
MOLT-4 = test system: MOLT-4
NCI/ADR-RES = test system: NCI/ADR-RES
OVCAR-8 = test system: OVCAR-8
PC-3 = test system: PC-3
U-251 = test system: U-251

Compound | GI50 (A549) | GI50 (ACHN) | GI50 (HCC 2998) | GI50 (HCT-15) [µM] | GI50 (HL-60) | GI50 (HOP-92) | GI50 (HT-29) | GI50 (K562) | GI50 (KM12) | GI50 (M14) | GI50 (NCI-H460) | GI50 (OVCAR-5) | GI50 (RPMI-8226) | GI50 (SF-268) | GI50 (SF-539) | GI50 (SK-MEL-5) | GI50 (SNB-75) | GI50 (SR) | GI50 (SW-620) | GI50 (UACC-257) | further results
C[N+](C)(C)CCOP(=O)(O)OP(=O)([O-])OCC1CCC(n2ccc(N)nc2=O)O1 (centres undefined) | > 100 µM (inactive) | > 100 µM (inactive) | > 100 µM (inactive) | > 100 | > 100 µM (inactive) | > 100 µM (inactive) | > 100 µM (inactive) | > 100 µM (inactive) | > 100 µM (inactive) | > 100 µM (inactive) | > 100 µM (inactive) | > 100 µM (inactive) | > 100 µM (inactive) | > 100 µM (inactive) | > 100 µM (inactive) | > 100 µM (inactive) | > 100 µM (inactive) | > 100 µM (inactive) | > 100 µM (inactive) | > 100 µM (inactive) | GI50 (A498): > 80.9 µM (inactive); GI50 (CAKI-1): > 100 µM (inactive); GI50 (DU-145): > 100 µM (inactive); GI50 (HOP-62): > 100 µM (inactive); GI50 (LOX IMVI): > 100 µM (inactive); GI50 (MDA-MB-231): 77.6 µM (inactive); GI50 (MDA-MB-435): > 100 µM (inactive); GI50 (Malme-3M): > 100 µM (inactive); GI50 (NCI-H226): > 100 µM (inactive); GI50 (NCI-H23): > 100 µM (inactive); GI50 (NCI-H522): > 100 µM (inactive); GI50 (OVCAR-3): > 100 µM (inactive); GI50 (OVCAR-4): > 100 µM (inactive); GI50 (SF-295): > 100 µM (inactive); GI50 (SK-MEL-28): > 100 µM (inactive); GI50 (SN12C): > 100 µM (inactive); GI50 (TK-10): > 100 µM (inactive); GI50 (UACC-62): > 100 µM (inactive); GI50 (UO-31): > 100 µM (inactive)
Cc1ccc(S(=O)(=O)N2CCN3CCN(CCN(C)CCN4CCN(CC4)CCN(S(=O)(=O)c4ccc(C)cc4)CCN(S(=O)(=O)c4ccc(C)cc4)CCN(S(=O)(=O)c4ccc(C)cc4)CCN(S(=O)(=O)c4ccc(C)cc4)CCN4CCN(CCN(C)CCN5CCN(CC5)CCN(S(=O)(=O)c5ccc(C)cc5)CCN(S(=O)(=O)c5ccc(C)cc5)CCN(S(=O)(=O)c5ccc(C)cc5)CC2)CC4)CC3)cc1 | 1.82 µM (inactive) | 1.79 µM (inactive) | 0.766 µM (active) | 1.49 | 0.407 µM (active) | 1.04 µM (active) | 0.208 µM (active) | 0.248 µM (active) | 0.541 µM (active) | 1.95 µM (inactive) | 0.553 µM (active) | 1.87 µM (inactive) | 0.308 µM (active) | 1.14 µM (inactive) | 2.06 µM (inactive) | 1.63 µM (inactive) | 1.35 µM (inactive) | 0.254 µM (active) | 1.05 µM (active) | 1.77 µM (inactive) | GI50 (CCRF-CEM): 0.303 µM (active); GI50 (EKVX): 2.33 µM (inactive); GI50 (IGROV-1): 1.97 µM (inactive); GI50 (MCF7): 1.5 µM (inactive); GI50 (MDA-N): 1.52 µM (inactive); GI50 (MOLT-4): 0.437 µM (active); GI50 (NCI/ADR-RES): > 100 µM (inactive); GI50 (OVCAR-8): 2.1 µM (inactive); GI50 (PC-3): 1.85 µM (inactive); GI50 (U-251): 0.235 µM (active)
